Test results from patent US11524966B1 (Valo Early Discovery, Inc., priority 2017, dated 2022).

Molecular target: T1, USP28 (His-tagged USP28-FL-mammalian) (Homo sapiens, UniProt Q96RU2)
T1 construct: Expression of USP28 (1-1077)-TEV-6*His (pTT5 vector); made in house; host or cells: Expi293f cells (pTT5 vector)
T1 sequence (Q96RU2 1-1077): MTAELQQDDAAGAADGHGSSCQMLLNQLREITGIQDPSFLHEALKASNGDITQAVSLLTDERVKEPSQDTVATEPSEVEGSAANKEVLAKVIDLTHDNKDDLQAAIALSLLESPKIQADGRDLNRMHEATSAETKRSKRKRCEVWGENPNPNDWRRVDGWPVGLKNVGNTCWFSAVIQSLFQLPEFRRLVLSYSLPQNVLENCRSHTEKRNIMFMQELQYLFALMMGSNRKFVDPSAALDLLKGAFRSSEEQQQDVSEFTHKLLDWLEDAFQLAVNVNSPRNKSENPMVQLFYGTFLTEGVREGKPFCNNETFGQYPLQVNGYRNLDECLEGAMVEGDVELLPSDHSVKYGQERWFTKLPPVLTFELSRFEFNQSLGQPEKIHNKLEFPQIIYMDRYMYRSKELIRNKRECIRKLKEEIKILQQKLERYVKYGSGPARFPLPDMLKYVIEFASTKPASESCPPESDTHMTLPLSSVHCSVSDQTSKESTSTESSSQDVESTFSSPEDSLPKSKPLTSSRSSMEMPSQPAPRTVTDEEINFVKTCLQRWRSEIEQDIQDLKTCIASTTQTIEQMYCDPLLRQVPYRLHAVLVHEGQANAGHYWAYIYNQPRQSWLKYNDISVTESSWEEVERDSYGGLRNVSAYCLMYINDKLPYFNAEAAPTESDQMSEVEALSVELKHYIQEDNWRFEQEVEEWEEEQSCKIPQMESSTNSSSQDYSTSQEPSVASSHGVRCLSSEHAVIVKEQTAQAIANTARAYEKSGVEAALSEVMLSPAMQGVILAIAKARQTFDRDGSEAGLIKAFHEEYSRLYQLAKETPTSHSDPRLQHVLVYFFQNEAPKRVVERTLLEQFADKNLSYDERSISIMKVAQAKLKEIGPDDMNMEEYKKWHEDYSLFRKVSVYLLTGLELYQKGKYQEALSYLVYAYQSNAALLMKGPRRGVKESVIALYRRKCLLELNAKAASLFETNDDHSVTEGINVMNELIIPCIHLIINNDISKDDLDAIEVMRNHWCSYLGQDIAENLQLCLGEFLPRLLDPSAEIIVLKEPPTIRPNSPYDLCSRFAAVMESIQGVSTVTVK
Test: Ubiquitin-Rhodamine 110 Assay for USP28 Activity, Example A-1(a)
Assay type: biochemical
Conditions: Ubiquitin-Rhodamine 110 assay, Example A-1(a); read-out: USP28 A-1(a) IC50 range
Protocol: Example A-1(a): Biochemical Assay: Ubiquitin-Rhodamine 110 Assay for USP28 Activity
The assay was performed in a final volume of 9 μL in assay buffer containing 20 mM Tris-HCl (pH 8.0, (1M Tris-HCl, pH 8.0 solution; Corning 46-031-CM)), 3 mM BME (2-Mercaptoethanol; Sigma 63689-25ML-F), 0.03% BGG (0.22 μM filtered, Sigma, G7516-25G), and 0.01% Triton X-100 (Sigma, T9284-10L). Nanoliter quantities of 10-point, 3-fold serial dilution in DMSO was pre-dispensed into 1536 assay plates (Corning, #3724BC) for a final test concentration of 25 μM to 1.3 nM, top to lowest dose, respectively. Enzyme USP28, construct His-tagged USP28-FL-mammalian, (protein expression and purification procedure described below). Concentration and incubation times were optimized for the maximal signal-to-background while maintaining initial velocity conditions at a fixed substrate concentration. The final concentration of the enzyme in the assay was 75 μM. Final substrate (Ub-Rh110; Ubiquitin-Rhodamine 110, UbiQ-126) concentration was 25 nM with [Ub-Rh110]<<Km. 3 μL of 2× enzyme was added to assay plates (pre-stamped with compound) preincubated with […] for 30 minutes and then 3 μL of 2×Ub-Rh110 was added to assay plates. Plates were incubated for 45 minutes at room temperature before addition of 3 μL of stop solution (final concentration of 10 mM citric acid (Sigma, 251275-500G)). Fluorescence was read on the Envision (Excitation at 485 nm and Emission at 535 nm; Perkin Elmer) or on the PheraSTAR (Excitation at 485 nm and Emission at 535 nm; BMG Labtech).
Procedure for the Protein Expression and Purification for Construct His-Tagged USP28-FL-Mammalian
Expression of USP28 (1-1077)-TEV-6*His (pTT5 vector) was carried out in Expi293f cells (sequence derived from uniprot ID: Q96RU2-1). Cells were re-suspended in lysis buffer B 50 mM Bicine, pH 8.0, 20 mM NaCl, 5% glycerol, 0.1% CHAPS, 5 mM β-ME, 1 mM PMSF, 1 ug/ml Leupeptin, 1 ug/ml Pepstatin) and lysed by sonication. Insoluble material was removed by centrifugation and the supernatant was loaded onto a Ni-NTA column (GE Healthcare) equilibrated with Ni Buffer A (50 mM Bicine, pH 8.0, 20 mM NaCl, 5% glycerol, 0.1% CHAPS, 5 mM β-ME.) and washed with Ni Buffer A+20 mM imidazole until A280 reached baseline. The protein was eluted with Ni Buffer B (50 mM Bicine, pH 8.0, 20 mM NaCl, 5% glycerol, 0.1% CHAPS, 5 mM β-ME, 300 mM imidazole.). The protein was further purified using a Superdex™ 200 10/300 GL column (GE Healthcare) equilibrated with 50 mM Bicine, pH 8.0, 20 mM NaCl, 5% glycerol, 0.1% CHAPS, 5 mM β-ME. The protein was concentrated to 2.5 mg ml^−1, flash-frozen in liquid N2 and stored at −80° C.
For assay formats Example A-1(a), A-1(b), and A-2, data were reported as percent inhibition compared with control wells based on the following equation: % inh=1−((FLU−AveLow)/(AveHigh−AveLow)) where FLU=measured Fluorescence, AveLow=average Fluorescence of no enzyme control (n=16), and AveHigh=average Fluorescence of DMSO control (n=16). IC50 values were determined by curve fitting of the standard 4 parameter logistic fitting algorithm included in the Activity Base software package: IDBS XE Designer Model 205. Data is fitted using the Levenburg Marquardt algorithm.

Structure (SMILES) | IC50
CN[C@H]1CN(c2ccc3c(n2)CC[C@H](NC(=O)c2sc4nc(C)ccc4c2N)C3)C[C@@H]1COC (single isomer, unassigned) [Example 26-1] | 50 to 200 nM
CN[C@@H]1CN(c2ccc3c(n2)CC[C@H](NC(=O)c2sc4nc(C)ccc4c2N)C3)C[C@H]1COC (single isomer, unassigned) [Example 26-2] | 50 to 200 nM
Cc1ccc2c(N)c(C(=O)N[C@H]3CCc4nc(N5C[C@@H](CF)[C@@H](N)C5)ccc4C3)sc2n1 (single isomer, unassigned) [Example 27-1] | 50 to 200 nM
Cc1ccc2c(N)c(C(=O)N[C@H]3CCc4nc(N5C[C@H](CF)[C@H](N)C5)ccc4C3)sc2n1 (single isomer, unassigned) [Example 27-2] | 50 to 200 nM
COCCO[C@H]1CN(c2ccc3c(n2)CC[C@H](NC(=O)c2sc4nc(C)ccc4c2N)C3)C[C@@H]1N (single isomer, unassigned) [Example 28-1] | 200 to 2000 nM
COCCO[C@@H]1CN(c2ccc3c(n2)CC[C@H](NC(=O)c2sc4nc(C)ccc4c2N)C3)C[C@H]1N (single isomer, unassigned) [Example 28-2] | 200 to 2000 nM
Cc1ccc2c(N)c(C(=O)N[C@H]3CCc4nc(N5C[C@H](N)C6(C5)OCCO6)ccc4C3)sc2n1 (single isomer, unassigned) [Example 29-1] | 200 to 2000 nM
Cc1ccc2c(N)c(C(=O)N[C@H]3CCc4nc(N5C[C@@H](N)C6(C5)OCCO6)ccc4C3)sc2n1 (single isomer, unassigned) [Example 29-2] | 200 to 2000 nM
Cc1cc(C)c2c(N)c(C(=O)N[C@H]3CCc4nc(N5C[C@H](OC(C)C)[C@@H](N)C5)ncc4C3)sc2n1 (single isomer, unassigned) [Example 31-1] | 50 to 200 nM
Cc1cc(C)c2c(N)c(C(=O)N[C@@H]3CCc4nc(N5C[C@H](OC(C)C)[C@@H](N)C5)ncc4C3)sc2n1 (single isomer, unassigned) [Example 31-2] | > 2000 nM
Cc1ccc2c(N)c(C(=O)N[C@H]3CCc4cc(N5CCNCC5)ncc4C3)sc2n1 (single isomer, unassigned) [Example 32-1] | 50 to 200 nM
Cc1ccc2c(N)c(C(=O)N[C@@H]3CCc4cc(N5CCNCC5)ncc4C3)sc2n1 (single isomer, unassigned) [Example 32-2] | 200 to 2000 nM
Cc1ccc2c(N)c(C(=O)N(C)[C@@H]3COc4cc(N5CCNCC5)cc(F)c4C3)sc2n1 [Example 10-16, 3-amino-N-[(3S)-5-fluoro-7-(piperazin-1-yl)-3,4-dihydro-2H-1-benzopyran-3-yl]-N,6-dimethylthieno[2,3-b]pyridine-2-carboxamide] | > 2000 nM
Cc1ccc2c(N)c(C(=O)N[C@H]3COc4cc(N5CC6CNCC(C5)C6(F)F)ncc4C3)sc2n1 [Example 114, 3-amino-N-[(3R)-7-{9,9-difluoro-3,7-diazabicyclo[3.3.1]nonan-3-yl}-2H,3H,4H-pyrano[3,2-c]pyridin-3-yl]-6-methylthieno[2,3-b]pyridine-2-carboxamide] | 1 to 50 nM
CO[C@H]1CN(c2cc3c(cn2)C[C@@H](NC(=O)c2sc4nc(C)ccc4c2N)CO3)C[C@@H]1N [Example 179, 3-amino-N-[(3R)-7-[(3S,4S)-3-amino-4-methoxypyrrolidin-1-yl]-2H,3H,4H-pyrano[3,2-c]pyridin-3-yl]-6-methylthieno[2,3-b]pyridine-2-carboxamide] | 1 to 50 nM
CCO[C@H]1CN(c2cc3c(cn2)C[C@@H](NC(=O)c2sc4nc(C)ccc4c2N)CO3)C[C@@H]1N [Example 180, 3-amino-N-[(3R)-7-[(3S,4S)-3-amino-4-ethoxypyrrolidin-1-yl]-2H,3H,4H-pyrano[3,2-c]pyridin-3-yl]-6-methylthieno[2,3-b]pyridine-2-carboxamide] | 1 to 50 nM
CO[C@H]1CN(c2ncc3c(n2)CC[C@H](NC(=O)c2sc4nc(C)ccc4c2N)C3)C[C@@H]1N [Example 186, 3-amino-N-[(6S)-2-[(3S,4S)-3-amino-4-methoxypyrrolidin-1-yl]-5,6,7,8-tetrahydroquinazolin-6-yl]-6-methylthieno[2,3-b]pyridine-2-carboxamide] | > 2000 nM
CO[C@H]1CN(c2ncc3c(n2)CC[C@@H](NC(=O)c2sc4nc(C)ccc4c2N)C3)C[C@@H]1N [Example 187, 3-amino-N-[(6R)-2-[(3S,4S)-3-amino-4-methoxypyrrolidin-1-yl]-5,6,7,8-tetrahydroquinazolin-6-yl]-6-methylthieno[2,3-b]pyridine-2-carboxamide] | 200 to 2000 nM
Cc1ccc2c(N)c(C(=O)N[C@H]3CCc4nc(N5C[C@H](OC(C)C)[C@@H](N)C5)ncc4C3)sc2n1 [Example 271, 3-amino-N-[(6S)-2-[(3S,4S)-3-amino-4-(propan-2-yloxy)pyrrolidin-1-yl]-5,6,7,8-tetrahydroquinazolin-6-yl]-6-methylthieno[2,3-b]pyridine-2-carboxamide] | > 2000 nM
Cc1ccc2c(N)c(C(=O)N[C@@H]3CCc4nc(N5C[C@H](OC(C)C)[C@@H](N)C5)ncc4C3)sc2n1 [Example 272, 3-amino-N-[(6R)-2-[(3S,4S)-3-amino-4-(propan-2-yloxy)pyrrolidin-1-yl]-5,6,7,8-tetrahydroquinazolin-6-yl]-6-methylthieno[2,3-b]pyridine-2-carboxamide] | 200 to 2000 nM
CO[C@H]1CN(c2ncc3c(n2)CC[C@H](NC(=O)c2sc4nc(C)cc(C)c4c2N)C3)C[C@@H]1N [Example 273, 3-amino-N-[(6S)-2-[(3S,4S)-3-amino-4-methoxypyrrolidin-1-yl]-5,6,7,8-tetrahydroquinazolin-6-yl]-4,6-dimethylthieno[2,3-b]pyridine-2-carboxamide] | > 2000 nM
CO[C@H]1CN(c2ncc3c(n2)CC[C@@H](NC(=O)c2sc4nc(C)cc(C)c4c2N)C3)C[C@@H]1N [Example 274, 3-amino-N-[(6R)-2-[(3S,4S)-3-amino-4-methoxypyrrolidin-1-yl]-5,6,7,8-tetrahydroquinazolin-6-yl]-4,6-dimethylthieno[2,3-b]pyridine-2-carboxamide] | 200 to 2000 nM
